The values below come from ChEMBL document CHEMBL5104140, “Bicyclic pyrimidine compounds as potent IRAK4 inhibitors” (Bioorg Med Chem Lett, 2022).

One data set relates to THP-1. The data set can be described thus: Antiinflammatory activity against human THP-1 cells assessed as inhibition of LPS induced IL-23 production. In kind it is functional, cell-based.
Data set [1] deals with T1, Interleukin-1 receptor-associated kinase 4 (Homo sapiens, UniProt Q9NWZ3).
T1 sequence (Q9NWZ3 whole entry): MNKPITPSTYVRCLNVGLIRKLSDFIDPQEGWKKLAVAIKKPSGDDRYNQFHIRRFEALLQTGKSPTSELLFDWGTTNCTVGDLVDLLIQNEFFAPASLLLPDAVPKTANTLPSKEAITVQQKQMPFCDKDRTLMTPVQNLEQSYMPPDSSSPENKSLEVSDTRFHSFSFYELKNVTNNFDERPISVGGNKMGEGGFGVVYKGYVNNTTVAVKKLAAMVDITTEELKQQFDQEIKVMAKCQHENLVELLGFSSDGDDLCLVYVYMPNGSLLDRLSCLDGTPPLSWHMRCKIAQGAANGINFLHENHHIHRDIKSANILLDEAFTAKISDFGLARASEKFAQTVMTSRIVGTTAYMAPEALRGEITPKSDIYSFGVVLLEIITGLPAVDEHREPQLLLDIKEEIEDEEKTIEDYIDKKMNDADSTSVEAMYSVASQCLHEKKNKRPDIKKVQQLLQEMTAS
The experiment in a line: Inhibition of IRAK4 (unknown origin).

Data set [2] is described as follows: Antiinflammatory activity against human dendritic cells assessed as inhibition of LPS induced IL-23 production. It counts as functional, cell-based. Conditions: Dendritic cell.
For another data set, the system named is PAD. The experiment in a line: Induction of PAD activity against human A549 cells. In kind it is toxicity, cell-based.
Data set [3] can be described thus: Clearance in rat at 1 mg/kg, iv. In kind it is ADME, organism-based. The note with it: in vivo.
A short description of data set [4]: Oral bioavailability in rat at 5 mg/kg. In kind it is ADME, organism-based. The note with it: in vivo.

Broadly, the IC50 is the concentration that gives 50% inhibition. Usually clearance stands for the rate of elimination divided by the concentration. Higher therefore signals efficient removal. Consider `NC(=O)[C@@H]1[C@H](Nc2nc(Nc3cccc(C(=O)N4CCOCC4)c3)nc3ccsc23)[C@H]2C=C[C@@H]1C2`, for which the IC50 in the data set on THP-1 turned out to be 150 nM; in data set [1], 6 nM; in data set [2], 80 nM; with PAD it was 4900 nM. In data set [3], this compound showed a clearance of 113 mL/min/kg.

Consider `NC(=O)[C@@H]1[C@H](Nc2nc(Nc3ccc(F)c(C(=O)N4CCCC4)c3)nc3ccsc23)[C@H]2C=C[C@@H]1C2`, for which the IC50 in the data set on THP-1 worked out at 270 nM; in data set [1], 3 nM; in data set [2] it was 80 nM; in the data set with PAD, 8000 nM. Besides, the clearance in data set [3] stood at 92 mL/min/kg.

For orientation: bioavailability means dose-corrected exposure relative to a reference, in per cent. Lower therefore signals poor availability. On to `NC(=O)[C@@H]1[C@H](Nc2nc(Nc3ccnc(N4CCOCC4)c3)nc3ccsc23)[C@H]2C=C[C@@H]1C2`, for which the IC50 with THP-1 came to 80 nM; in data set [1], 10 nM; in data set [2], 100 nM; in the data set on PAD, 2700 nM. Further, the clearance in data set [3] came to 132 mL/min/kg. Moreover, the bioavailability in data set [4] amounted to 12%.

In the case of `NC(=O)[C@@H]1[C@H](Nc2nc(Nc3cc(F)cc(N4CCOCC4)c3)nc3ncsc23)[C@H]2C=C[C@@H]1C2`, the IC50 in the data set with THP-1 was 2600 nM; in data set [1], 18 nM; with PAD, 7500 nM.

Regarding `NC(=O)[C@@H]1[C@H](Nc2nc(Nc3cccc(C(=O)N4CCCC4)c3)nc3ccoc23)[C@H]2C=C[C@@H]1C2`, the IC50 in the data set on THP-1 worked out at 220 nM; in data set [1], 3 nM; in data set [2], 90 nM; in the data set on PAD it was 5800 nM. This compound also came in with a clearance in data set [3] of 101 mL/min/kg.

In the case of `CN1CCN(c2cc(Nc3nc(N[C@H]4[C@@H](C(N)=O)[C@@H]5C=C[C@H]4C5)c4sccc4n3)ccn2)CC1`, the IC50 was determined as 80 nM in the data set on THP-1, 7 nM in data set [1], 60 nM in data set [2] and 1700 nM with PAD. In data set [3], this compound displayed a clearance of 242 mL/min/kg. The bioavailability in data set [4] is less than 1%.

Consider `NC(=O)[C@@H]1[C@H](Nc2nc(Nc3cccc(C(=O)N4CCCC4)c3)nc3cc[nH]c23)[C@H]2C=C[C@@H]1C2`, for which the IC50 was 3800 nM in the data set with THP-1, 6 nM in data set [1], 1400 nM in data set [2] and greater than 100000 nM with PAD.

Turning to `NC(=O)[C@@H]1[C@H](Nc2nc(Nc3cc(F)cc(C(=O)N4CCCC4)c3)nc3ccsc23)[C@H]2C=C[C@@H]1C2`, the IC50 came out at 60 nM with THP-1, 2 nM in data set [1], 50 nM in data set [2] and 1800 nM in the data set on PAD. In addition, the clearance in data set [3] worked out at 141 mL/min/kg.

For `NC(=O)[C@@H]1[C@H](Nc2nc(Nc3ccc(C(=O)N4CCOCC4)cc3)nc3ccsc23)[C@H]2C=C[C@@H]1C2`, the IC50 was found to be 70 nM in the data set with THP-1, 14 nM in data set [1], 30 nM in data set [2] and 1100 nM with PAD.

For the compound `NC(=O)[C@@H]1[C@H](Nc2nc(Nc3ccc(C(=O)N4CCCC4)cc3)nc3ccsc23)[C@H]2C=C[C@@H]1C2`, the IC50 in the data set with THP-1 amounted to 70 nM; in data set [1], 10 nM; in data set [2] it was 40 nM; with PAD, 560 nM.

In the case of `CC(C)n1ccc2nc(Nc3ccc4cnn(C(C)C)c4c3)nc(N[C@H]3[C@@H](C(N)=O)[C@@H]4C=C[C@H]3C4)c21`, the IC50 in the data set with THP-1 came to 420 nM; in data set [1], 2.7 nM; in data set [2], 920 nM; in the data set with PAD it was 2600 nM.

With `CN1CCN(c2cc(Nc3nc(N[C@H]4[C@@H](C(N)=O)[C@@H]5C=C[C@H]4C5)c4sccc4n3)ccc2F)CC1`, the results for the IC50 (in the data set on THP-1; in data set [1]; in the data set with PAD) were 510 nM, 50 nM and 2000 nM, respectively.

With `NC(=O)[C@@H]1[C@H](Nc2nc(Nc3ccc(OCCN4CCCC4)cc3)nc3ccsc23)[C@H]2C=C[C@@H]1C2`, the IC50 in the data set with THP-1 was 50 nM; in data set [1] it was 49 nM; in data set [2], 190 nM; in the data set with PAD, 610 nM.

Consider `NC(=O)[C@@H]1[C@H](Nc2nc(Nc3cccc(C(=O)N4CCCC4)c3)nc3cn[nH]c23)[C@H]2C=C[C@@H]1C2`, for which the IC50 with THP-1 is 9400 nM; in data set [1] it was 17 nM; in the data set on PAD, greater than 100000 nM.

`NC(=O)[C@@H]1[C@H](Nc2nc(Nc3cc(C(=O)N4CCCC4)ccc3F)nc3ccsc23)[C@H]2C=C[C@@H]1C2`: the IC50 was 11000 nM in the data set with THP-1, 711 nM in data set [1] and 14000 nM in the data set with PAD.

Turning to `CC(C)n1ncc2ccc(Nc3nc(N[C@H]4[C@@H](C(N)=O)[C@@H]5C=C[C@H]4C5)c4c(ccn4C)n3)cc21`, the IC50 in the data set on THP-1 stood at 500 nM; in data set [1], 4.1 nM; in data set [2], 1300 nM; with PAD, 3300 nM.

As to `NC(=O)[C@@H]1[C@H](Nc2nc(Nc3ccnc(N4CCCC4)c3)nc3ccsc23)[C@H]2C=C[C@@H]1C2`, the IC50 in the data set with THP-1 amounted to 200 nM; in data set [1], 206 nM; in the data set on PAD, 2600 nM.

In the case of `NC(=O)[C@H]1CCC[C@H]1Nc1nc(Nc2cccc(C(=O)N3CCCC3)c2)nc2ccsc12`, the IC50 with THP-1 is 260 nM; in data set [1], 17 nM; in data set [2], 990 nM; in the data set on PAD it was greater than 100000 nM. In addition, the clearance in data set [3] is 104 mL/min/kg.

Take `Cc1n[nH]c2nc(Nc3cc(F)cc(N4CCOCC4)c3)nc(N[C@H]3[C@@H](C(N)=O)[C@@H]4C=C[C@H]3C4)c12`: the IC50 was determined as 37 nM with THP-1, 5 nM in data set [1] and 260 nM in the data set on PAD. In data set [3], the clearance stood at 47 mL/min/kg. The bioavailability in data set [4] was found to be 7%.

As for `O=C(c1cccc(Nc2nc(NC3C[C@@H]4CC[C@H]3C4)c3sccc3n2)c1)N1CCC(F)C1` (stereo partly drawn), the IC50 in the data set with THP-1 came out at 4700 nM; in data set [1], 98 nM; with PAD it was 3500 nM. This compound also had a clearance in data set [3] of 143 mL/min/kg.

`NC(=O)[C@@H]1[C@H](Nc2nc(Nc3cccc(C(=O)N4CCC(F)C4)c3)nc3ccsc23)[C@H]2C=C[C@@H]1C2` (stereo partly drawn): the IC50 in the data set on THP-1 came to 90 nM; in data set [1], 15 nM; in data set [2], 40 nM; in the data set with PAD, 2700 nM. This compound also returned a clearance in data set [3] of 82 mL/min/kg. Moreover, the bioavailability in data set [4] is 3%.

Regarding `CN1CCN(c2cc(F)cc(Nc3nc(N[C@H]4[C@@H](C(N)=O)[C@@H]5C=C[C@H]4C5)c4sccc4n3)c2)CC1`, the IC50 amounted to 80 nM with THP-1, 12 nM in data set [1], 100 nM in data set [2] and 1500 nM in the data set on PAD. Moreover, in data set [3], the clearance was found to be 99 mL/min/kg. The same compound returned a bioavailability in data set [4] of 16%.

Turning to `NC(=O)[C@@H]1[C@H](Nc2nc(Nc3cccc(C(=O)N4CCCC4)c3)nc3[nH]ccc23)[C@H]2C=C[C@@H]1C2`, the IC50 in the data set on THP-1 turned out to be 40 nM; in data set [1], 11 nM; in data set [2], 50 nM; in the data set on PAD it was 420 nM. For the same compound, in data set [3], the clearance came out at 100 mL/min/kg.

On to `NC(=O)[C@@H]1[C@H](Nc2nc(Nc3ccc(F)c(N4CCOCC4)c3)nc3ccsc23)[C@H]2C=C[C@@H]1C2`, for which the results for the IC50 (in the data set with THP-1; in data set [1]; with PAD) were 240 nM, 95 nM and 2500 nM, respectively. For the same compound, the clearance in data set [3] came out at 52 mL/min/kg. The compound also gave a bioavailability in data set [4] of 23%.

`NC(=O)[C@@H]1[C@H](Nc2nc(Nc3cccc(C(=O)N4CCCC4)c3)nc3[nH]ncc23)[C@H]2C=C[C@@H]1C2`: the IC50 was 290 nM in the data set with THP-1, 4 nM in data set [1], 480 nM in data set [2] and 5800 nM in the data set on PAD. This compound gave a clearance in data set [3] of 124 mL/min/kg.

`Cn1ncc2nc(Nc3cccc(C(=O)N4CCCC4)c3)nc(N[C@H]3[C@@H](C(N)=O)[C@@H]4C=C[C@H]3C4)c21`: the IC50 in the data set on THP-1 stood at 900 nM; in data set [1], 4 nM; with PAD, 10000 nM.

As to `NC(=O)c1ccccc1Nc1nc(Nc2cccc(C(=O)N3CCCC3)c2)nc2ccsc12`, the IC50 in the data set with THP-1 is 240 nM; in data set [1], 19 nM; in data set [2], 1500 nM; with PAD, 6400 nM. Moreover, the clearance in data set [3] was 56 mL/min/kg.

With `NC(=O)[C@@H]1[C@H](Nc2nc(Nc3cccc(C(=O)N4CCCC4)c3)nc3ccccc23)[C@H]2C=C[C@@H]1C2`, the concentration for half-maximal inhibition (IC50) with THP-1 was 250 nM; in data set [1], 5 nM; in data set [2] it was 490 nM; in the data set with PAD, 7500 nM. In data set [3], the clearance amounted to 102 mL/min/kg.

For `NC(=O)[C@@H]1[C@H](Nc2nc(Nc3cccc(C(=O)N4CCCC4)c3)nc3[nH]cnc23)[C@H]2C=C[C@@H]1C2`, the concentration for half-maximal inhibition (IC50) with THP-1 turned out to be 200 nM; in data set [1], 5 nM; in data set [2], 200 nM; in the data set with PAD, 4000 nM. In data set [3], this compound had a clearance of 180 mL/min/kg.

With `Cc1c[nH]c2nc(Nc3cccc(C(=O)N4CCCC4)c3)nc(N[C@H]3[C@@H](C(N)=O)[C@@H]4C=C[C@H]3C4)c12`, the results for the IC50 (with THP-1; in data set [1]; in the data set on PAD) were 20 nM, 8 nM and 80 nM, respectively.

Turning to `NC(=O)[C@@H]1[C@H](Nc2nc(Nc3cccc(C(=O)N4CCCC4)c3)nc3ncsc23)[C@H]2C=C[C@@H]1C2`, the IC50 in the data set with THP-1 came out at 280 nM; in data set [1], 3 nM; in data set [2] it was 7300 nM; in the data set on PAD it was 4000 nM. The compound further came in with a clearance in data set [3] of 105 mL/min/kg.
